Literature values in patent publication US20200323770A1, “WOUND DEBRIDEMENT COMPOSITION AND METHOD FOR TREATING WOUNDS” (Hollister Incorporated, priority 2017, published 2020).

Settings: in vitro; increasing papain concentrations 200-1,600 USP units/mg in 10% urea

papain
increased: collagenolysis | elastinolysis | fibrinolysis
